# Measured values from patent publication US6083944A, “Quinoline-containing α-ketoamide cysteine and serine protease inhibitors” (Cephalon, Inc., priority 1998, dated 2000).
# Target: T1, Recombinant human calpain I (Homo sapiens, UniProt P07384)
# T1 construct: made in house
# T1 sequence (P07384 1-714): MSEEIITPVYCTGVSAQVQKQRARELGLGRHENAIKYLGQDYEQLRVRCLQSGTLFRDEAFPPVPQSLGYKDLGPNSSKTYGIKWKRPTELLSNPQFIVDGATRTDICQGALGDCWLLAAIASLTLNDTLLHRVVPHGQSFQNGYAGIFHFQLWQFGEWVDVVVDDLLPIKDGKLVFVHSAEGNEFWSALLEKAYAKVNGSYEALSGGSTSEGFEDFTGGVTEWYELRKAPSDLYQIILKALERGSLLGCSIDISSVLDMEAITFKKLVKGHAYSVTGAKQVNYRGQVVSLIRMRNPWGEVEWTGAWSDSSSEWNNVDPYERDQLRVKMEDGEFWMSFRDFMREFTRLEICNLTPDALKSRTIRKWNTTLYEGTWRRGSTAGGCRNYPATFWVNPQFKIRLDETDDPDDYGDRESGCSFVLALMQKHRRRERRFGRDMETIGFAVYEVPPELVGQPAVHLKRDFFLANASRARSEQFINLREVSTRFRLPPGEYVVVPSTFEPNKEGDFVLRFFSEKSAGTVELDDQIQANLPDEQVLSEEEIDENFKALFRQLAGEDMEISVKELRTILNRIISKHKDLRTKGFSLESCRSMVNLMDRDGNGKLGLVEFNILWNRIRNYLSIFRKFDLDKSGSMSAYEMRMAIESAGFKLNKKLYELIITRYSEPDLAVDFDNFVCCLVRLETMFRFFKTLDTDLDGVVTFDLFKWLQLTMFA
# Assay: Inhibition of calpain I (Succ-Leu-Tyr-MNA hydrolysis)
# Format: biochemical
# Conditions: for inhibition at 10 µM: values in parentheses, at 10,000 nM
# Procedure: To evaluate inhibitory activity, stock solutions (40 times concentrated) of each compound to be tested were prepared in 100% anhydrous DMSO and 5 μl of each inhibitor preparation was aliquoted into each of three wells of a 96-well plate. Recombinant human calpain I, prepared by the method of Meyer et al. (Biochem. J. 1996, 314: 511-519), was diluted into assay buffer (i.e., 50 mM Tris, 50 mM NaCl, 1 mM EDTA, 1 mM EGTA, and 5 mM β-mercaptoethanol, pH 7.5, including 0.2 mM Succ-Leu-Tyr-MNA), and 175 μl was aliquoted into the same wells containing the independent inhibitor stocks as well as to positive control wells containing 5 μl DMSO, but no compound. To start the reaction, 20 μl of 50 mM CaCl2 in assay buffer was added to all wells of the plate, excepting three, which were used as background signal baseline controls. Substrate hydrolysis was monitored every 5 minutes for a total of 30 minutes. Substrate hydrolysis in the absence of inhibitor was linear for up to 15 minutes.
# Inhibition of calpain I activity was calculated as the percent decrease in the rate of substrate hydrolysis in the presence of inhibitor relative to the rate in its absence. Comparison between the inhibited and control rates was made within the linear range for substrate hydrolysis. The IC50 S of inhibitors (concentration yielding 50% inhibition) were determined from the percent decrease in rates of substrate hydrolysis in the presence of five to seven different concentrations of the test compound. The results were plotted as percent inhibition versus log inhibitor concentration, and the IC50 was calculated by fitting the data to the four-parameter logistic equation shown below using the program GraphPad Prism (GraphPad Software, Inc., San Diego, Calif.).
# The parameters a, b, c, and d are defined as follows: a is % inhibition in the absence of inhibitor, b is the slope, c is the IC50, and d is the % inhibition at an infinite concentration of inhibitor.
Compound,"IC50 (Tables 2-4, pH 7.5) [nM]",inhibition at 10 µM (Tables 2-4) [%],other results
CS(=O)(=O)NCCCNC(=O)C(=O)C(Cc1ccccc1)NC(=O)c1cc(C#Cc2ccccc2)nc2ccccc12 (centres unmarked) [Example 99],130,,
CS(=O)(=O)NCCNC(=O)C(=O)C(Cc1ccccc1)NC(=O)c1cc(C#Cc2ccccc2)nc2ccccc12 (centres unmarked) [Example 93],180,,
C=C(C)C(=O)OCCNC(=O)C(=O)C(Cc1ccccc1)NC(=O)c1cc(C#Cc2ccccc2)nc2ccccc12 (centres unmarked) [Example 111],,95,
C=CCNC(=O)C(=O)C(Cc1ccccc1)NC(=O)c1cc(C#Cc2ccccc2)nc2ccccc12 (centres unmarked) [Example 3],210,,
O=C(NCCNS(=O)(=O)c1cccc2cccnc12)C(=O)C(Cc1ccccc1)NC(=O)c1cc(C#Cc2ccccc2)nc2ccccc12 (centres unmarked) [Example 89],130,,
COCC(NC(=O)c1cc(Cl)nc2ccccc12)C(=O)C(=O)NCCNS(=O)(=O)c1ccc(-c2ccccn2)s1 (centres unmarked) [Example 157],,,"IC50 (Table 5, head prints no unit): 61 nM"
NS(=O)(=O)c1ccc(CNC(=O)C(=O)C(Cc2ccccc2)NC(=O)c2cc(C#Cc3ccccc3)nc3ccccc23)cc1 (centres unmarked) [Example 39],184,,
CC(C)(C)OC(=O)N=C(NCCCCC(CO)NC(=O)C(=O)C(Cc1ccccc1)NC(=O)c1cc(C#Cc2ccccc2)nc2ccccc12)NC(=O)OC(C)(C)C (centres unmarked) [Example 25],,42,
N#CCCNC(=O)C(=O)C(Cc1ccccc1)NC(=O)c1cc(C#Cc2ccccc2)nc2ccccc12 (centres unmarked) [Example 5],,95,
CCCCC(NC(=O)c1cc(Cl)nc2ccccc12)C(=O)C(=O)NCCNS(=O)(=O)c1ccc(-c2ccccn2)s1 (centres unmarked) [Example 155],,,"IC50 (Table 5, head prints no unit): 31 nM"
CCCCCCOCCOCCOCCNC(=O)C(=O)C(Cc1ccccc1)NC(=O)c1cc(C#Cc2ccccc2)nc2ccccc12 (centres unmarked) [Example 9],230,,
CC(C)(C)OC(=O)NCCCNC(=O)C(=O)C(Cc1ccccc1)NC(=O)c1cc(C#Cc2ccccc2)nc2ccccc12 (centres unmarked) [Example 97],,100,
O=C(NCCNS(=O)(=O)c1cccs1)C(=O)C(Cc1ccccc1)NC(=O)c1cc(C#Cc2ccccc2)nc2ccccc12 (centres unmarked) [Example 90],76,,
CCCCC(NC(=O)c1cc(Cl)nc2ccccc12)C(=O)C(=O)NCCNS(=O)(=O)c1ccc([N+](=O)[O-])cc1 (centres unmarked) [Example 149],,,"IC50 (Table 5, head prints no unit): 23 nM"
O=C(NCCCNC(=O)C(=O)C(Cc1ccccc1)NC(=O)c1cc(C#Cc2ccccc2)nc2ccccc12)Nc1ccccc1 (centres unmarked) [Example 98],126,,
O=C(NCc1ccccc1)C(=O)[C@H](Cc1ccccc1)NC(=O)c1cc(C#Cc2ccccc2)nc2ccccc12 [Example 36],79,,
O=C(NCCCCO)C(=O)C(Cc1ccccc1)NC(=O)c1cc(C#Cc2ccccc2)nc2ccccc12 (centres unmarked) [Example 13],,100,
O=C(NC12CC3CC(CC(C3)C1)C2)C(=O)C(Cc1ccccc1)NC(=O)c1cc(C#Cc2ccccc2)nc2ccccc12 (centres unmarked) [Example 15],,41,
O=C(NCCNS(=O)(=O)c1cccnc1)C(=O)[C@H](Cc1ccccc1)NC(=O)c1cc(C#Cc2ccccc2)nc2ccccc12 [Example 87],56,,
CC(NC(=O)C(=O)C(Cc1ccccc1)NC(=O)c1cc(C#Cc2ccccc2)nc2ccccc12)c1ccccc1 (centres unmarked) [Example 27],510,,
CC(C)CC(NC(=O)c1cc(C#Cc2ccccc2)nc2ccccc12)C(=O)C(=O)NCCOCCO (centres unmarked) [Example 114],,93,
"COc1ccc2nc(C)cc(C(=O)NC(Cc3ccccc3)C(=O)C(=O)NCCNS(=O)(=O)c3ccc(-c4ccccn4)s3)c2c1 (single isomer, unassigned) [Example 143]",35,,

Compound,"IC50 (Tables 2-4, pH 7.5) [nM]",inhibition at 10 µM (Tables 2-4) [%],other results
CC(C)CC(NC(=O)c1cc(C#Cc2ccccc2)nc2ccccc12)C(=O)C(=O)NCCNC(=O)Nc1ccccc1 (centres unmarked) [Example 116],,89,
CC(C)(C)OC(=O)CCNC(=O)C(=O)C(Cc1ccccc1)NC(=O)c1cc(C#Cc2ccccc2)nc2ccccc12 (centres unmarked) [Example 107],,93,
O=C(NC1CCCCNC1=O)C(=O)C(Cc1ccccc1)NC(=O)c1cc(C#Cc2ccccc2)nc2ccccc12 (centres unmarked) [Example 22],78,,
O=C(NCC(c1ccccc1)c1ccccc1)C(=O)C(Cc1ccccc1)NC(=O)c1cc(C#Cc2ccccc2)nc2ccccc12 (centres unmarked) [Example 44],,85,
O=C(NC1CCCCC1)C(=O)C(Cc1ccccc1)NC(=O)c1cc(C#Cc2ccccc2)nc2ccccc12 (centres unmarked) [Example 30],,85,
COC(=O)C(CCCCNC(=O)C(=O)C(Cc1ccccc1)NC(=O)c1cc(C#Cc2ccccc2)nc2ccccc12)NC(=O)OC(C)(C)C (centres unmarked) [Example 106],,97,
O=C(NCc1cccnc1)C(=O)C(Cc1ccccc1)NC(=O)c1cc(C#Cc2ccccc2)nc2ccccc12 (centres unmarked) [Example 46],,91,
COc1ccc2[nH]cc(CCNC(=O)C(=O)C(Cc3ccccc3)NC(=O)c3cc(C#Cc4ccccc4)nc4ccccc34)c2c1 (centres unmarked) [Example 49],160,,
"Cc1cc(C(=O)NC(Cc2ccccc2)C(=O)C(=O)NCCNS(=O)(=O)c2ccc(-c3ccccn3)s2)c2ccccc2n1 (single isomer, unassigned) [Example 142]",24,,
CC(C)CC(NC(=O)c1cc(C#Cc2ccccc2)nc2ccccc12)C(=O)C(=O)NCCNC(=O)OCc1ccccc1 (centres unmarked) [Example 115],,100,
COCCNC(=O)C(=O)C(CC(C)C)NC(=O)c1cc(C#Cc2ccccc2)nc2ccccc12 (centres unmarked) [Example 112],,95,
O=C(NCCNS(=O)(=O)c1ccccc1)C(=O)C(Cc1ccccc1)NC(=O)c1cc(CCc2ccccc2)nc2ccccc12 (centres unmarked) [Example 137],16,,
O=C(NCCCCCO)C(=O)C(Cc1ccccc1)NC(=O)c1cc(C#Cc2ccccc2)nc2ccccc12 (centres unmarked) [Example 14],,98,
O=C(NCCCCCCNS(=O)(=O)c1cccc2c(Cl)cccc12)C(=O)C(Cc1ccccc1)NC(=O)c1cc(C#Cc2ccccc2)nc2ccccc12 (centres unmarked) [Example 101],,84,
CCCC(NC(=O)c1cc(Cl)nc2ccccc12)C(=O)C(=O)NCCNS(=O)(=O)c1ccc([N+](=O)[O-])cc1 (centres unmarked) [Example 150],,,"Calpain I IC50 ** (value in parentheses: % inhibition) (Table 5, ** explained as 10,000 nM only in footnotes to Tables 2-4): 78%"
CCCC(NC(=O)c1cc(Cl)nc2ccccc12)C(=O)C(=O)NCCNS(=O)(=O)c1ccc(-c2ccccn2)s1 (centres unmarked) [Example 156],,,"IC50 (Table 5, head prints no unit): 43 nM"
O=C(NCCCCc1ccccc1)C(=O)C(Cc1ccccc1)NC(=O)c1cc(C#Cc2ccccc2)nc2ccccc12 (centres unmarked) [Example 34],227,,
O=C(NCCNS(=O)(=O)c1ccccc1)C(=O)C(Cc1ccccc1)NC(=O)c1cc(-c2cccnc2)nc2ccccc12 (centres unmarked) [Example 136],,99,
COC(=O)C(Cc1ccccc1)NC(=O)C(=O)C(Cc1ccccc1)NC(=O)c1cc(C#Cc2ccccc2)nc2ccccc12 (centres unmarked) [Example 109],655,,
O=C(NC1CCCCC1O)C(=O)C(Cc1ccccc1)NC(=O)c1cc(C#Cc2ccccc2)nc2ccccc12 (centres unmarked) [Example 28],,61,
O=C(NCCNS(=O)(=O)C=Cc1ccccc1)C(=O)C(Cc1ccccc1)NC(=O)c1cc(C#Cc2ccccc2)nc2ccccc12 (centres unmarked) [Example 91],42,,
O=C(NCCNS(=O)(=O)Cc1ccccc1)C(=O)C(Cc1ccccc1)NC(=O)c1cc(C#Cc2ccccc2)nc2ccccc12 (centres unmarked) [Example 92],94,,
